Laboratory results: US5952189A (priority 1997, dated 1999)

System: LPS-induced hepatotoxicity

**Q.** How did the “% Mortality” value (Gln + LPS + DK120 5 mg/kg, without DK120 33) turn out when `C[C@H](NC(=O)OCc1ccccc1)C(=O)N[C@@H](C)C(=O)NC(Cc1ccccc1)B(O)O` (some centres unmarked) [DK120, carbobenzoxy-ala-ala-borophe] was run?
**A.** Its value is 0%.

**Q.** What about the AST (Gln + LPS + DK120 5 mg/kg, without DK120 100) of the same compound?
**A.** The AST was 79 +/- 10 U/ml.

**Q.** And the ALT (Gln + LPS + DK120 5 mg/kg, without DK120 334)?
**A.** Its ALT is 182 +/- 17 U/ml.

**Q.** And the “Effect on serum transaminase levels after LPS or SEB” value (LPS or SEB plus Gln, DK120 30 min prior)?
**A.** Its value is “significant reduction in the serum transaminase levels”.

**Q.** What about the “Effect on LPS-induced mortality, long term survival (FIG. 9)” value (mouse, in vivo) of the same compound?
**A.** The value was “could delay or prevent LPS-induced mortality”.
